Data from ChEMBL document CHEMBL5532680, “Identification of a Sonically Activated Degrader of Methionine Adenosyltransferase 2A by an in Silico Approach Assisted with the Hole-Electron Analysis” (J Med Chem, 2024).
The source made the active and inactive calls. The calls are words filed in the database; no cut-off is given here.

Legend:
[1] = target: T1, S-adenosylmethionine synthase isoform type-2 (Homo sapiens, UniProt P31153); experiment: Inhibition of recombinant human MAT2A expressed in baculovirus infected Sf9 cells at grated than 10 nM using L-methione as substrate preincubated for 15 mins followed by substrate addition and measured after 60 mins in presence of ATP by Kinase-Glo luminescent assay; settings: time 75.0 min
T1 sequence (P31153 whole entry, looked up, canonical isoform): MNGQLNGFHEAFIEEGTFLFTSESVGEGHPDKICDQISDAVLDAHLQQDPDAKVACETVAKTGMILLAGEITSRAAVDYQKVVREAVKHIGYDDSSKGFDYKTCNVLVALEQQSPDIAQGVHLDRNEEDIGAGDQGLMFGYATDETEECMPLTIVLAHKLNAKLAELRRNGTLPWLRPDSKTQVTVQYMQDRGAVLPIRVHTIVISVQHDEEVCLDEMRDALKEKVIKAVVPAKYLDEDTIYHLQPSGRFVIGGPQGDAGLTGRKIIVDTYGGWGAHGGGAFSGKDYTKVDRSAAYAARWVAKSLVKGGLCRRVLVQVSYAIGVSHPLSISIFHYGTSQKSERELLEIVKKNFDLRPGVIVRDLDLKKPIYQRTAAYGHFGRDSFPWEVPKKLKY

[2] = tested on: HCT-116; experiment: Antiproliferative activity against MTAP knocked out human HCT-116 cells incubated for 5 days by MTT method; format: functional, cell-based; settings: HCT-116, 120 h
[3] = target: T1, S-adenosylmethionine synthase isoform type-2; experiment: Induction of MAT2A degradation in human HCT-116 cells incubated for 4 hrs by Western blotting assay; format: cell-based
[4] = target: T1, S-adenosylmethionine synthase isoform type-2; experiment: Induction of MAT2A degradation in human HCT-116 cells assessed as degradation maximum at higher than 1 uM preincubated for 4 hrs followed by 1.0 MHz, 0.8W/cm2 ultrasound treatment for 0.5 mins by Western blotting assay relative to control; format: cell-based; settings: time 240.5 min
[5] = target: T1, S-adenosylmethionine synthase isoform type-2; experiment: Induction of MAT2A degradation in human HCT-116 cells assessed as MAT2A level at 0.1 uM preincubated for 4 hrs followed by 1.0 MHz, 0.8W/cm2 ultrasound treatment for 4 mins by Western blotting assay; format: cell-based; settings: time 244.0 min
[6] = tested on: HCT-116; experiment: Antiproliferative activity against MTAP knocked out human HCT-116 cells incubated for 5 days by MTT method relative to control; format: functional; settings: time 5 day
[7] = tested on: HCT-116; experiment: Antiproliferative activity against wild type human HCT-116 cells assessed as cell viability at 10 uM under 4 mins sonication; format: functional; settings: HCT-116, 4 min, read-out: Activity
[8] = Half-life in ICR mouse at 1 mg/kg, iv measured upto 24 hrs by LC-MS/MS analysis; format: ADME, organism-based; settings: in vivo
[9] = Cmax in ICR mouse at 10 mg/kg, po measured upto 24 hrs by LC-MS/MS analysis; format: ADME, organism-based; settings: in vivo
[10] = AUC in ICR mouse at 1 mg/kg, iv measured upto 24 hrs by LC-MS/MS analysis; format: ADME, organism-based; settings: in vivo
[11] = Volume of distribution at steady state in ICR mouse at 1 mg/kg, iv measured upto 24 hrs by LC-MS/MS analysis; format: ADME, organism-based; settings: in vivo, read-out: Vdss
[12] = Oral bioavailability in ICR mouse at 10 mg/kg measured upto 24 hrs by LC-MS/MS analysis; format: ADME, organism-based; settings: in vivo
[13] = Drug metabolism in BALB/c mouse blood after 24 hrs; format: ADME, tissue-based
[14] = AUC(0 to 24 hrs) in BALB/c mouse at 10 mg/kg, po measured upto 24 hrs by LC-MS/MS analysis; format: ADME, organism-based; settings: in vivo
[15] = Biodistribution in MATP knocked out human HCT-116 cells xenografted in BALB/c mouse assessed as fluorescence intensity in tumor at 10 mg/kg, po measured after 24 hrs; format: ADME, organism-based; settings: in vivo
[16] = Biodistribution in MATP knocked out human HCT-116 cells xenografted in BALB/c mouse assessed as fluorescence intensity in skin at 10 mg/kg, po measured after 24 hrs; format: ADME, organism-based; settings: in vivo
[17] = Biodistribution in MATP knocked out human HCT-116 cells xenografted in BALB/c mouse assessed as fluorescence intensity in liver at 10 mg/kg, po measured after 24 hrs; format: ADME, organism-based; settings: in vivo
[18] = Biodistribution in MATP knocked out human HCT-116 cells xenografted in BALB/c mouse assessed as fluorescence intensity in spleen at 10 mg/kg, po measured after 24 hrs; format: ADME, organism-based; settings: in vivo
[19] = tested on: HCT-116; experiment: Antitumor activity against […] knocked out human HCT-116 cells xenografted in BALB/c mouse assessed as tumor growth inhibition at 10 mg/kg, po administered once a day for 6 hrs and measured after 3 weeks; format: functional; settings: HCT-116, 504 h, read-out: TGI
[20] = tested on: HCT-116; experiment: Antitumor activity against […] knocked out human HCT-116 cells xenografted in BALB/c mouse assessed as tumor growth inhibition at 100 mg/kg, po administered once a day for 6 hrs and measured after 3 weeks; format: functional; settings: HCT-116, 504 h, read-out: TGI
[21] = Toxicity in BALB/c mouse xenografted with human HCT-116 cells assessed as body weight loss at 10 mg/kg, po administered once a day followed by 4 mins sonication post 6 hrs of compound administration and measured for 3 weeks; format: organism-based; settings: in vivo, 504 h
[22] = tested on: HCT-116; experiment: Antitumor activity against […] knocked out human HCT-116 cells xenografted in BALB/c mouse assessed as reduction in tumor weight at 10 mg/kg, po administered once a day followed by 4 mins sonication post 6 hrs of compound administration and measured for 3 weeks; format: functional, organism-based
[23] = Toxicity in BALB/c mouse xenografted with human HCT-116 cells assessed as heart damage at 10 mg/kg, po by H and E staining based assay; format: organism-based; settings: in vivo
[24] = Toxicity in BALB/c mouse xenografted with human HCT-116 cells assessed as lung damage at 10 mg/kg, po by H and E staining based assay; format: organism-based; settings: in vivo
[25] = Toxicity in BALB/c mouse xenografted with human HCT-116 cells assessed as kidney damage at 10 mg/kg, po by H and E staining based assay; format: organism-based; settings: in vivo
[26] = Toxicity in BALB/c mouse xenografted with human HCT-116 cells assessed as liver tissue rupture at 50 mg/kg, po by H and E staining based assay; format: organism-based; settings: in vivo
[27] = Toxicity in BALB/c mouse xenografted with human HCT-116 cells assessed as change in liver cell nucleus size at 100 mg/kg, po by H and E staining based assay; format: organism-based; settings: in vivo
[28] = Toxicity in BALB/c mouse xenografted with human HCT-116 cells assessed as spleen damage at 100 mg/kg, po by H and E staining based assay; format: organism-based; settings: in vivo
[29] = Apparent permeability in MDCKII-MDR1 cells; format: ADME, cell-based, Canis lupus familiaris; settings: dog, MDCK-MDR1
[30] = tested on: MDR1 (P-gp); experiment: Efflux ratio of apparent permeability in MDCKII-MDR1 cells; format: ADME, cell-based, Canis lupus familiaris; settings: dog, MDCK-MDR1
[31] = Intrinsic clearance in human liver microsomes; format: ADME, Microsome; settings: read-out: CLH
[32] = target: T2, Cytochrome P450 1A2 (Homo sapiens, UniProt P05177); experiment: Inhibition of CYP1A2 (unknown origin); format: ADME
T2 sequence (P05177 whole entry): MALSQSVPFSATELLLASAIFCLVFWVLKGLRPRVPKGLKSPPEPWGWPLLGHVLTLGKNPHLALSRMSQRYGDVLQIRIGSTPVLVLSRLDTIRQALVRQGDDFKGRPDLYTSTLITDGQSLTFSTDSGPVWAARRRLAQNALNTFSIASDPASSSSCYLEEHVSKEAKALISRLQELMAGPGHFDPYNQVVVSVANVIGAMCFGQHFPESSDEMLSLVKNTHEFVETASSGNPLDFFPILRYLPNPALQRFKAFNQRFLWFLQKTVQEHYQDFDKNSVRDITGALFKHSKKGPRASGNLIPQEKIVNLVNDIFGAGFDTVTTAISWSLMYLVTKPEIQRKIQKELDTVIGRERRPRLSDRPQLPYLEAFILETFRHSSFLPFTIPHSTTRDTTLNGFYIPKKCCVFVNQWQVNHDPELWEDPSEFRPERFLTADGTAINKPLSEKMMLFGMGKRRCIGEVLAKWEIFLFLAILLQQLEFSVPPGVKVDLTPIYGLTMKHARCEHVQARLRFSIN

[33] = target: Cytochrome P450 2C19 (Homo sapiens, UniProt P33261); experiment: Inhibition of CYP2C19 (unknown origin); format: ADME
Sequence of Cytochrome P450 2C19 (P33261 whole entry): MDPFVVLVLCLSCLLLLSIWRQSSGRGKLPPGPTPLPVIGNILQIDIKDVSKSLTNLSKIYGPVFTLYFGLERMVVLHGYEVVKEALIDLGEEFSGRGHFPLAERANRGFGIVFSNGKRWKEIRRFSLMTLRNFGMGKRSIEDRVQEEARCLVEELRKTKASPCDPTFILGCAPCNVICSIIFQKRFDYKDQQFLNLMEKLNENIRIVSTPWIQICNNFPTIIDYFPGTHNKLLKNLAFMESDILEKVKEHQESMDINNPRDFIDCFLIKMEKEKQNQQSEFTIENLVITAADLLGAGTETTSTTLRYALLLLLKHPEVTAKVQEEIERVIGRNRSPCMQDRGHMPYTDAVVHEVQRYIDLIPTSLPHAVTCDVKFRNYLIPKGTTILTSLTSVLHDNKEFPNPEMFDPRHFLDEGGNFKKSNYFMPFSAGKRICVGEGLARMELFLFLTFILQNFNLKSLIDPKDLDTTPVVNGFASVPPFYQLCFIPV

## CCOc1ncc2cc(-c3ccc4c(c3)N3CCCC3CO4)c(=O)n(-c3ccc(OC(F)F)cc3)c2n1 (stereo not drawn)
[1]
  inhibition: Active
[2]
  IC50: 0.35 µM
[3]
  Activity: inactive
[4]
  Emax: 76%
[5]
  Activity: 13%
[6]
  Activity: 92%
[7]
  viability at 10 µM: 77%
[8]
  half-life: 1.6 h
[9]
  Cmax: 1380 ng/mL
[10]
  AUC: 1267 ng·h/mL
[11]
  Vd: 3.47 L/kg
[12]
  bioavailability: 77%
[13]
  Drug metabolism: Metabolite_Detected
[14]
  AUC: 9714 ng·h/mL
[15]
  Drug uptake: Active
[16]
  Drug uptake: Active
[17]
  Drug uptake: Active
[18]
  Drug uptake: Not Active
[19]
  inhibition in vivo at 10 mg/kg: 15.6%
[20]
  inhibition in vivo at 100 mg/kg: 96.5%
[21]
  Activity: Non-Toxic
[22]
  Activity: Active
[23]
  Activity: Non-Toxic
[24]
  Activity: Non-Toxic
[25]
  Activity: Non-Toxic
[26]
  Activity: Toxic
[27]
  Activity: Toxic
[28]
  Activity: Non-Toxic
[29]
  Papp: 13.4 ×10⁻⁶ cm/s
[30]
  efflux ratio: 0.9
[31]
  CLint scaled: 9.6 mL/min/kg
[32]
  IC50: > 50 µM
[33]
  IC50: 16 µM
